Like-named read-outs stand apart in the source and are kept apart here. Marks after values point to notes of the source that are not given here.
What was measured:
[1] = test system: BxPC-3 pancreatic cancer cells; assay: WST-1 proliferation assay, BxPC-3; format: cell-based, human
Procedure: (§1) Cancer cell lines: Pancreatic cancer cells lines (Mia Paca-2, Panc-1, BxPC-3 and Capan-2) were obtained from Dr. Juan Iovanna (Inserm, France). Cells were maintained in RPMI (BxPC-3, Capan-2) or DMEM (Mia Paca-2, Panc-1) medium containing glutamax-1 (Lonza), supplemented with 100 U/ml penicillin/100 μg/ml streptomycin, and 10% fetal calf serum (FCS) (AbCys, Lot S02823S1800). Expression of tyrosine kinases was determined by RT-PCR using Hot Star Taq (Qiagen GmbH, Hilden, Germany) in a 2720 Thermal Cycler (Applied Biosystems).
(§2) Treatment was started with the addition of the respective drug. […] After 72 hours WST-1 reagent was added and incubated with the cells for 4 hours before absorbance measurement at 450 nm in an EL800 Universal Microplate Reader (Bio-Tek Instruments Inc.). Media alone was used as a blank and proliferation in the absence of compounds served as positive control. Results are representative of three/four experiments.

[2] = test system: Capan-2 pancreatic cancer cells; assay: WST-1 proliferation assay, Capan-2; format: cell-based, human; settings: Homo sapiens
Procedure: as §1, §2

[3] = test system: Mia Paca-2 pancreatic cancer cells; assay: WST-1 proliferation assay, Mia Paca-2; format: cell-based, human; settings: Homo sapiens
[4] = test system: Panc-1 pancreatic cancer cells; assay: WST-1 proliferation assay, Panc-1; format: cell-based, human; settings: Homo sapiens
Procedure: as §1, §2

[5] = test system: MDAMB 231 breast cancer cells; assay: WST-1 proliferation/survival assay, MDAMB 231; format: cell-based; settings: Homo sapiens, MDA-MB-231, read-out: Gemcitabine IC50
Procedure: (§3) Gemcitabine (Gemzar, Lilly France) was obtained as a powder and dissolved in sterile 0.9% NaCl solution and stored as aliquots at −80° C. Fresh dilutions were prepared fcr each experiment. Cell lines: Colon and prostate cancer cell lines (Dr. Juan Iovanna, INSERM U624, Marseille, France), breast and ovarian cancer cell lines (Dr. Patrice Dubreuil, UMR 599 INSERM, Marseille, France), and lung cancer cell lines (Pr. Christian Auclair, UMR 8113 CNRS) were cultured as monolayers in RPMI 1640 medium containing L-glutamine supplemented with 100 U/ml penicillin and 100 μg/ml streptomycin, and 10% v/v heat-inactivated fetal calf serum (AbCys Lot S02823S1800) under standard culture conditions (5% CO2, 95% air in humidified chamber at 37° C.). In proliferation assays, all cells were grown in medium containing 1% FCS.
(§4) Treatment was started with the addition of the respective drug. […] After 72 hours WST-1 reagent was added and incubated with the cells for 4 hours before absorbance measurement at 450 nm in an EL800 Universal Microplate Reader (Bio-Tek Instruments Inc.). Media alone was used as a blank and proliferation in the absence of compounds served as positive control (DMSO control). The new IC50 was scored and the results are representative of 3-4 experiments.

[6] = test system: MDAMB 134 breast cancer cells; assay: WST-1 proliferation/survival assay, MDAMB 134; format: cell-based; settings: Homo sapiens, read-out: Gemcitabine IC50
Procedure: as §3, §4

BT20 breast cancer cells = assay: WST-1 proliferation/survival assay, BT20; format: cell-based; settings: Homo sapiens, BT-20, read-out: Gemcitabine IC50
Procedure: as §3, §4

[7] = test system: BT474 breast cancer cells; assay: WST-1 proliferation/survival assay, BT474; format: cell-based; settings: Homo sapiens, BT-474, read-out: Gemcitabine IC50
Procedure: as §3, §4

[8] = test system: LnCaP prostate cancer cells; assay: WST-1 proliferation/survival assay, LnCaP; format: cell-based; settings: Homo sapiens, read-out: Gemcitabine IC50
Procedure: as §3, §4

[9] = test system: DU145 prostate cancer cells; assay: WST-1 proliferation/survival assay, DU145; format: cell-based; settings: Homo sapiens, DU-145, read-out: Gemcitabine IC50
Procedure: as §3, §4

[10] = test system: OVCAR3 ovarian cancer cells; assay: WST-1 proliferation/survival assay, OVCAR3; format: cell-based; settings: Homo sapiens, OVCAR-3, read-out: Gemcitabine IC50
Procedure: as §3, §4

[11] = test system: CaCo-2 colorectal cancer cells; assay: WST-1 proliferation/survival assay, CaCo-2; format: cell-based; settings: Homo sapiens, read-out: Gemcitabine IC50
Procedure: as §3, §4

[12] = test system: HRT118 colorectal cancer cells; assay: WST-1 proliferation/survival assay, HRT118; format: cell-based; settings: Homo sapiens, read-out: Gemcitabine IC50
Procedure: as §3, §4

A549 NSCLC cells = assay: WST-1 proliferation/survival assay, A549; format: cell-based; settings: Homo sapiens, read-out: Gemcitabine IC50
Procedure: as §3, §4

H1299 NSCLC cells = assay: WST-1 proliferation/survival assay, H1299; format: cell-based; settings: Homo sapiens, NCI-H1299, read-out: Gemcitabine IC50
Procedure: as §3, §4

H1650 NSCLC cells = assay: WST-1 proliferation/survival assay, H1650; format: cell-based; settings: Homo sapiens, NCI-H1650, read-out: Gemcitabine IC50
Procedure: as §3, §4

[13] = test system: Abrams osteosarcoma cells; assay: Alamar Blue cell proliferation assay, Abrams; format: cell-based, canine; settings: Canis lupus familiaris, 72 h, read-out: Combination IC50 (chemotherapeutic agent with fixed masitinib)
D17 osteosarcoma cells = assay: Alamar Blue cell proliferation assay, D17; format: cell-based, canine; settings: Canis lupus familiaris, 72 h, read-out: Combination IC50 (chemotherapeutic agent with fixed masitinib)
[14] = test system: CMT12 breast carcinoma cells; assay: Alamar Blue cell proliferation assay, CMT12; format: cell-based, canine; settings: Canis lupus familiaris, Breast carcinoma cell, 72 h, read-out: Combination IC50 (chemotherapeutic agent with fixed masitinib)
[15] = test system: CMT27 breast carcinoma cells; assay: Alamar Blue cell proliferation assay, CMT27; format: cell-based, canine; settings: Canis lupus familiaris, Breast carcinoma cell, 72 h, read-out: Combination IC50 (chemotherapeutic agent with fixed masitinib)
C2 mastocytoma cells = assay: Alamar Blue cell proliferation assay, C2; format: cell-based, canine; settings: Canis lupus familiaris, 72 h, read-out: Combination IC50 (chemotherapeutic agent with fixed masitinib)
[16] = test system: Mia Paca-2 pancreatic tumors; assay: Nog-SCID mouse model of human pancreatic cancer; format: in vivo, Nog-SCID mice; settings: day 56, 28 days of treatment; control 1023

Nc1ccn([C@@H]2O[C@H](CO)[C@@H](O)C2(F)F)c(=O)n1 [Gemcitabine, 4-amino-1-(2-deoxy-2,2-difluoro-β-D-erythro-pentofuranosyl)pyrimidin-2(1H)-on 2′,2′-difluoro-2′-deoxycytidine]
IC50 ([1]; BxPC-3, 72 hours, 1% FCS, read-out: IC50, single agent): 2 to 20 µM
IC50 ([1]; Homo sapiens, BXPC-3, read-out: IC50 of gemcitabine plus 5 μM masitinib, BxPC-3, masitinib overnight before gemcitabine): 10 µM
IC50 ([1]; Homo sapiens, BXPC-3, read-out: IC50 of gemcitabine plus 10 μM masitinib, BxPC-3, masitinib overnight before gemcitabine): 10 µM
IC50 ([2]; Capan-2, 72 h, Capan-2, 72 hours, 1% FCS, read-out: IC50, single agent): 2 to 20 µM
IC50 ([2]; Capan-2, read-out: IC50 of gemcitabine plus 5 μM masitinib, Capan-2, masitinib overnight before gemcitabine): 2 µM
IC50 ([3]; MIA PaCa-2, read-out: IC50 of gemcitabine plus 5 μM masitinib): 1.5 µM
IC50 ([3]; MIA PaCa-2, read-out: IC50 of gemcitabine plus 10 μM masitinib): 0.025 µM
IC50 ([3]; Mia Paca-2, 72 hours, 1% FCS, read-out: IC50, single agent): > 10 µM
IC50 ([3]; Mia Paca-2, read-out: IC50, single agent (resistance)): > 2500 µM
IC50 ([4]; PANC-1, read-out: IC50 of gemcitabine plus 5 μM masitinib): 8 µM
IC50 ([4]; PANC-1, read-out: IC50 of gemcitabine plus 10 μM masitinib): 1 µM
IC50 ([4]; Panc-1, 72 hours, 1% FCS, read-out: IC50, single agent): > 10 µM
IC50 ([4]; Panc-1, read-out: IC50, single agent (resistance)): > 2500 µM
IC50 [5]: 100 µM
IC50 [6]: 100 µM
IC50 (BT20 breast cancer cells): 50 µM
IC50 [7]: 100 µM
IC50 [8]: 25 to 100 µM
IC50 [9]: 100 µM
IC50 [10]: 50 µM
IC50 [11]: > 100 µM
IC50 [12]: > 100 µM
IC50 (A549 NSCLC cells): 100 µM
IC50 (H1299 NSCLC cells): 100 µM
IC50 (H1650 NSCLC cells): 5 µM
IC50 [13]: 1 µM
IC50 (D17 osteosarcoma cells): 1.3 µM
IC50 [14]: 10.8 µM
IC50 [15]: 1.3 µM
IC50 (C2 mastocytoma cells): > 100 µM
Tumor Volume, Median [16]: 662* mm^3
